In patent publication US8940742B2, “Heterocyclic compounds and uses thereof” (Infinity Pharmaceuticals, Inc., priority 2012, dated 2015):
pIC50: −log10 of the molar value.

Assays:
PI3K γ = target: T1, PI3K γ (Homo sapiens, UniProt P48736); experiment: PI3-Kinase Promega ADP-Glo Max assay; format: biochemical; conditions: 40 nM kinase, 3 mM ATP, 500 uM diC8-PtdInsP
T1 construct: purchased Millipore
Description: Promega ADP-Glo Max assay kit (Cat. No. V7002) was utilized to determine IC50 values for α, β, δ and γ isoforms of human Class I PI3 kinases (Millipore). […] Reactions were incubated at room temperature for 2 hours followed by addition of 25 uL of stop solution. After a 40-minute incubation at room temperature, 50 uL of Promega detection mix was added followed by incubation for 1 hour at room temperature. Plates were then read on Envision plate reader in luminescence mode. Data was converted to % inhibition using the following equation below:
[formula] where S is the sample luminescence, Pos is a positive control without added PI3K, Neg is the negative control without added compound. Data was then plotted as % inhibition vs compound concentration.
(§1) Certain compounds provided herein were tested in PI3-Kinase Promega Assay using procedures as described above to determine IC50 values for α, β, δ and/or γ isoforms.

Raw264.7 p110 γ = target: T2, Raw264.7 p110 γ (Mus musculus, UniProt Q9JHG7); experiment: Raw264.7 p110 γ cellular assay (phospho-AKT); format: cell-based; conditions: serum-starved RAW264.7 cells stimulated with C5a
T2 construct: reduction of phospho-AKT in stimulated RAW 264.7 cells; endogenous in cells; host or cells: RAW264.7 macrophages
Text: (b) PI3K-γ Selective Assay
Briefly, serum-starved PAW264.7 cells are stimulated with a known GPCR agonist C5a. […] Cells can be treated with test compounds prior to, simultaneously with, or subsequent to the stimulation by C5a. RAW 264.7 cells respond to the complement component fragment C5a through activation of the C5a receptor, and the C5a receptor activates macrophages and induces cell migration.

PI3K β = target: T3, PI3K β (Homo sapiens, UniProt P42338); experiment: PI3-Kinase Promega ADP-Glo Max assay; format: biochemical; conditions: 40 nM kinase, 3 mM ATP, 500 uM diC8-PtdInsP
T3 construct: purchased Millipore
Description: (§2) Promega ADP-Glo Max assay kit (Cat. No. V7002) was utilized to determine IC50 values for α, β, δ and γ isoforms of human Class I PI3 kinases (Millipore). Samples of kinase (20 nM α or δ, 40 nM β or γ isoform) were incubated with compound for 15 minutes at room temperature in reaction buffer (15 mM HEPES pH 7.4, 20 mM NaCl, 1 mM EGTA, 0.02% Tween 20, 10 mM MgCl2, 0.2 mg/mL bovine-γ-globulins) followed by addition of ATP/diC8-PtdInsP mixture to give final concentrations of 3 mM ATP and 500 uM diC8-PtdInsP. Reactions were incubated at room temperature for 2 hours followed by addition of 25 uL of stop solution. After a 40-minute incubation at room temperature, 50 uL of Promega detection mix was added followed by incubation for 1 hour at room temperature. Plates were then read on Envision plate reader in luminescence mode. Data was converted to % inhibition using the following equation below:
(§3) [formula] where S is the sample luminescence, Pos is a positive control without added PI3K, Neg is the negative control without added compound. Data was then plotted as % inhibition vs compound concentration. Data fit to 4 parameter logistic equation to determine IC50 values: […]
as §1

PI3K α = target: T4, PI3K α (Homo sapiens, UniProt P42336); experiment: PI3-Kinase Promega ADP-Glo Max assay; format: biochemical; conditions: 20 nM kinase, 3 mM ATP, 500 uM diC8-PtdInsP
T4 construct: purchased Millipore
Description: as §2, §3, §1

PI3K δ = target: T5, PI3K δ (Homo sapiens, UniProt O00329); experiment: PI3-Kinase Promega ADP-Glo Max assay; format: biochemical; conditions: 20 nM kinase, 3 mM ATP, 500 uM diC8-PtdInsP
T5 construct: purchased Millipore
Description: as §2, §3, §1

RAJI p110 δ = RAJI p110 δ (Homo sapiens, UniProt O00329); experiment: RAJI p110 δ cellular assay (phospho-AKT);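 also: potency based on lowered phosphorylated AKT in RAJI cells, as a readout of PI3K-δ dependent B-cell receptor signaling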
RAJI p110 δ, sequence (O00329 whole entry): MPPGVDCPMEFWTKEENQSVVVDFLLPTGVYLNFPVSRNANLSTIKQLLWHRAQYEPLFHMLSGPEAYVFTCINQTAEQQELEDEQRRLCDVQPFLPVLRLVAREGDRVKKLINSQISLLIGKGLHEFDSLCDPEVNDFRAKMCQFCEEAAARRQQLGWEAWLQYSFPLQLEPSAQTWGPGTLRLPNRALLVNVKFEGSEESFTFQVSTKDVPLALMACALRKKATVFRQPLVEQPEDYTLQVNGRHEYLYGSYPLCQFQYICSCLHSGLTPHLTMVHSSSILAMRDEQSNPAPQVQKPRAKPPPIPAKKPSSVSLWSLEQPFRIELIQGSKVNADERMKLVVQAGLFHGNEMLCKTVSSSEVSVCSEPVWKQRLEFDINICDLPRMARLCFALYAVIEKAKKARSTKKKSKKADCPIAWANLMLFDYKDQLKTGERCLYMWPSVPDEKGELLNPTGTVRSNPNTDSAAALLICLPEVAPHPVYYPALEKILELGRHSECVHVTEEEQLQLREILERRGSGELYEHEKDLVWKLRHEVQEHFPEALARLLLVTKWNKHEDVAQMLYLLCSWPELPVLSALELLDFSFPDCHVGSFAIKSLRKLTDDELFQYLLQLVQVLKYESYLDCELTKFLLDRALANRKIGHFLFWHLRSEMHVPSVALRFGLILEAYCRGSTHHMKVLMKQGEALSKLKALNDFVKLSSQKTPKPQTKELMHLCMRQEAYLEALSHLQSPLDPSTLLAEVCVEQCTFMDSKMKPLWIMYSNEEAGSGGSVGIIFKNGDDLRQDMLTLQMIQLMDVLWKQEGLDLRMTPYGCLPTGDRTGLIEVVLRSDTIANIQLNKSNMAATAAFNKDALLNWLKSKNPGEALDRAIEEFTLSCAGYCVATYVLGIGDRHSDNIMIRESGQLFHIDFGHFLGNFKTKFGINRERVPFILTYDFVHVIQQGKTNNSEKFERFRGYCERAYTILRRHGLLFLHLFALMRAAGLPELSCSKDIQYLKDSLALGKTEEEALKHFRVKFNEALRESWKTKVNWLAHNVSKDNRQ
RAJI p110 δ, sequence (P27986 whole entry partner): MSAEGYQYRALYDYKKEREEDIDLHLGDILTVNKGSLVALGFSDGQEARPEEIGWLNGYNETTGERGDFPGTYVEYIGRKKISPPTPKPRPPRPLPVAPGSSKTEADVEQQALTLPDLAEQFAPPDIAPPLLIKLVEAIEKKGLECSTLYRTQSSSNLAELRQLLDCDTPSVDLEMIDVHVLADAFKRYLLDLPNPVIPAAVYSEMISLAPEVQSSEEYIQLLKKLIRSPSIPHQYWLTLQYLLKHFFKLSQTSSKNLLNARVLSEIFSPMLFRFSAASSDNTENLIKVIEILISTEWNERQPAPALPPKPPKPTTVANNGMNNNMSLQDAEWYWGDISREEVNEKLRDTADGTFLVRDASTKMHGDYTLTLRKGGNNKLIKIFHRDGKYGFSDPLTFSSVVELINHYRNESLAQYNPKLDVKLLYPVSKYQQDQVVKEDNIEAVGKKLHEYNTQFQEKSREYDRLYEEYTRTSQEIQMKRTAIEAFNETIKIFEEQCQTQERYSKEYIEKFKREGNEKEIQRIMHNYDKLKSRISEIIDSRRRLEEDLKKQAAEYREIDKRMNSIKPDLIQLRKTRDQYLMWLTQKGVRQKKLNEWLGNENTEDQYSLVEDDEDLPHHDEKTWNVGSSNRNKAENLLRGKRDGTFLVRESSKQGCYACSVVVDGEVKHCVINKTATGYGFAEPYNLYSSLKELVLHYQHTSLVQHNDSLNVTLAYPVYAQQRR
Description: (a) PI3K-δ Selective Assay
Reduction of phospho-AKT is indicative of compounds that may inhibit B-cell proliferation and function in certain diseases.

T3 sequence (P42338 whole entry): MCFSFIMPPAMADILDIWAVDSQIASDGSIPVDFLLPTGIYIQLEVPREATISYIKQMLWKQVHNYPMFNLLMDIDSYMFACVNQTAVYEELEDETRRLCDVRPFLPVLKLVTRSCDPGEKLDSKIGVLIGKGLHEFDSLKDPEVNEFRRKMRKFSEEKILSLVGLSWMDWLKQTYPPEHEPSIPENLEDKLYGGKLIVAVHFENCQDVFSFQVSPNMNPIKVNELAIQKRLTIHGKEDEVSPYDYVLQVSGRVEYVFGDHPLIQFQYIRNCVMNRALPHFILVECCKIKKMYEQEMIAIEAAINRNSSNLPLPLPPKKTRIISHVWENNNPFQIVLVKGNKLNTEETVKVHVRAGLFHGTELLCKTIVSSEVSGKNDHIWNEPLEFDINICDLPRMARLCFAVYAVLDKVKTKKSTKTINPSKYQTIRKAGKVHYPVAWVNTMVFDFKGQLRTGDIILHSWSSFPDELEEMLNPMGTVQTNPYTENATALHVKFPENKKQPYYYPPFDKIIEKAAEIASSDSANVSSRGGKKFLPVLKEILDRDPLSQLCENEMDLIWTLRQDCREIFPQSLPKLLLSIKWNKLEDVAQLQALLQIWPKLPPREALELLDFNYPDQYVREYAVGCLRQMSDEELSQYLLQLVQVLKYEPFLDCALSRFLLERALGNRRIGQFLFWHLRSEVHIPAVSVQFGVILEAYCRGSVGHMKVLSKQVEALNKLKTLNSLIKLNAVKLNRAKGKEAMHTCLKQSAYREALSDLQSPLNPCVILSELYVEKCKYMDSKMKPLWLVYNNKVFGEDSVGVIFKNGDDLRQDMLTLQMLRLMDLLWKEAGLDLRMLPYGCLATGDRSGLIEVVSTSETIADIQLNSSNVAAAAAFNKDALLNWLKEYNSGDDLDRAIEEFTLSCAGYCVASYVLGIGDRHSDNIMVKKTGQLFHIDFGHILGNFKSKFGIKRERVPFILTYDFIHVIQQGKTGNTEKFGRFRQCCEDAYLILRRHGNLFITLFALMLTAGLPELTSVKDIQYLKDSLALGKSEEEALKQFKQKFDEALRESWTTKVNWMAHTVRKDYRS
T3 sequence (P27986 whole entry partner): as the sequence (P27986 whole entry partner) above
T5 sequence (O00329 whole entry): as the sequence (O00329 whole entry) above
T5 sequence (P27986 whole entry partner): as the sequence (P27986 whole entry partner) above
T1 sequence (P48736 whole entry): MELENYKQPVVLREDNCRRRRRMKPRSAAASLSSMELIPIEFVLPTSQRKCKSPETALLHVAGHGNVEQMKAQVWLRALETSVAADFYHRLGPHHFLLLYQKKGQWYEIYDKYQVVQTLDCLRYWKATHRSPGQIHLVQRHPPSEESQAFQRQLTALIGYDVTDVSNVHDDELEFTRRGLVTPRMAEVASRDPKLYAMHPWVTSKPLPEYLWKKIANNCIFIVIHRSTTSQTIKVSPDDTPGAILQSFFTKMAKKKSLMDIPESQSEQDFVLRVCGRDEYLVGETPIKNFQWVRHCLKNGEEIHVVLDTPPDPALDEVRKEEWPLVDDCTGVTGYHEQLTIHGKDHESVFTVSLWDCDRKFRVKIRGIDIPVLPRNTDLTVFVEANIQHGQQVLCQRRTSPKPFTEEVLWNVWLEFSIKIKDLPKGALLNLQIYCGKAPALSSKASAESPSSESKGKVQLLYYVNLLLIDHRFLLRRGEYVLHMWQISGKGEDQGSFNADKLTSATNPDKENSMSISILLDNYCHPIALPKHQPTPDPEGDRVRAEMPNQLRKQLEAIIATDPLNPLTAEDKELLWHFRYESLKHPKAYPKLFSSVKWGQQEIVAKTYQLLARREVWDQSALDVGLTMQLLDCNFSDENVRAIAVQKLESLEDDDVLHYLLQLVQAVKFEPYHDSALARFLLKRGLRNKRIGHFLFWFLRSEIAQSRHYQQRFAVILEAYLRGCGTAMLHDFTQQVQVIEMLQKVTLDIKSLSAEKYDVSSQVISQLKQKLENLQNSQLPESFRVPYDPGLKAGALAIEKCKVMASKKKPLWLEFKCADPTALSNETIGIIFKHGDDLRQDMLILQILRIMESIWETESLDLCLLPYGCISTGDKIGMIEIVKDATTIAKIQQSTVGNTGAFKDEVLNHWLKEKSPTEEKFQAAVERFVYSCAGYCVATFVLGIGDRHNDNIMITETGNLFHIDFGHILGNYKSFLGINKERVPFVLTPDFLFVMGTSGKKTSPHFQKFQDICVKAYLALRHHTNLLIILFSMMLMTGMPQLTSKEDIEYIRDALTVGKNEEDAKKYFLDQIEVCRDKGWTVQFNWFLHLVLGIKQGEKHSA

Compound	pIC50 (PI3K γ)	pIC50 (Raw264.7 p110 γ)	pIC50 (PI3K β)	pIC50 (PI3K α)	pIC50 (PI3K δ)	pIC50 (RAJI p110 δ)
C[C@H](NC(=O)c1nccnc1N)c1cc2cccc(Cl)c2c(=O)n1-c1ccccc1 [Compound 4, (S)-3-amino-N-(1-(8-chloro-1-oxo-2-phenyl-1,2-dihydroisoquinolin-3-yl)ethyl)pyrazine-2-carboxamide]	6.00 to 7.00	> 7.00	6.00 to 7.00	5.00 to 6.00	> 7.00	> 7.00
C[C@H](NC(=O)c1cnc2cccnn12)c1cc2cccc(Cl)c2c(=O)n1-c1ccccc1 [Compound 13]	5.00 to 6.00	6.00 to 7.00	5.00 to 6.00		6.00 to 7.00	6.00 to 7.00
C[C@H](NC(=O)c1nccnc1N)c1cc2cccc(Cl)c2c(=O)n1-c1ccc(F)cc1 [Compound 19]	6.00 to 7.00	> 7.00	6.00 to 7.00	< 5.00	6.00 to 7.00	> 7.00
C[C@H](NC(=O)c1cnc2cccnn12)c1cc2cccc(Cl)c2c(=O)n1-c1ccc(F)cc1 [Compound 20]	5.00 to 6.00	6.00 to 7.00	5.00 to 6.00	5.00 to 6.00	5.00 to 6.00	> 7.00
C[C@H](NC(=O)c1cnn2cccnc12)c1cc2cccc(Cl)c2c(=O)n1-c1ccccc1 [Compound 22]	5.00 to 6.00	6.00 to 7.00	5.00 to 6.00	< 5.00	5.00 to 6.00	6.00 to 7.00
C[C@H](NC(=O)c1nc(-c2ccccc2)cnc1N)c1cc2cccc(Cl)c2c(=O)n1-c1ccccc1 [Compound 42]	5.00 to 6.00	5.00 to 6.00	< 5.00	< 5.00	< 5.00	6.00 to 7.00
C[C@H](NC(=O)c1cncc2cccnc12)c1cc2cccc(Cl)c2c(=O)n1-c1ccccc1 [Compound 45]	5.00 to 6.00	> 7.00	5.00 to 6.00	< 5.00	6.00 to 7.00	> 7.00
C[C@H](NC(=O)c1nccnc1N)c1cc2cccc(-c3cnn(C)c3)c2c(=O)n1-c1ccccc1 [Compound 54, (S)-3-amino-N-(1-(8-(1-methyl-1H-pyrazol-4-yl)-1-oxo-2-phenyl-1,2-dihydroisoquinolin-3-yl)ethyl)pyrazine-2-carboxamide]	6.00 to 7.00	6.00 to 7.00	< 5.00	< 5.00	5.00 to 6.00	> 7.00
C[C@H](NC(=O)c1nccnc1N)c1cc2cccc(-c3cccnc3)c2c(=O)n1-c1ccccc1 [Compound 55]	5.00 to 6.00	5.00 to 6.00	< 5.00	< 5.00	> 7.00	> 7.00
C[C@H](NC(=O)c1nccnc1N)c1cc2cccc(-c3cc[nH]n3)c2c(=O)n1-c1ccccc1 [Compound 59]	5.00 to 6.00	5.00 to 6.00	< 5.00	< 5.00	6.00 to 7.00	> 7.00
C[C@H](NC(=O)c1cnn2cccnc12)c1cc2cccc(Cl)c2c(=O)n1-c1ccc(F)cc1 [Compound 62]	6.00 to 7.00	6.00 to 7.00	5.00 to 6.00	5.00 to 6.00	5.00 to 6.00	6.00 to 7.00
C[C@H](NC(=O)c1cncc2cccnc12)c1cc2cccc(Cl)c2c(=O)n1-c1ccc(F)cc1 [Compound 65]	5.00 to 6.00	> 7.00	5.00 to 6.00	5.00 to 6.00	5.00 to 6.00	> 7.00
C[C@H](NC(=O)c1cncc2cccnc12)c1cc2cccc(C(F)(F)F)c2c(=O)n1-c1ccccc1 [Compound 67]		> 7.00				> 7.00
C[C@H](NC(=O)c1csc2cccnc12)c1cc2cccc(Cl)c2c(=O)n1-c1ccccc1 [Compound 68]		5.00 to 6.00				5.00 to 6.00
C[C@H](NC(=O)c1c(N)nn2cccnc12)c1cc2cccc(C(F)(F)F)c2c(=O)n1-c1ccccc1 [Compound 71]	6.00 to 7.00	> 7.00	5.00 to 6.00	< 5.00	5.00 to 6.00	> 7.00
C[C@H](NC(=O)c1c(N)nn2cccnc12)c1cc2cccc(Cl)c2c(=O)n1-c1ccc(F)cc1 [Compound 72]	> 7.00	> 7.00	6.00 to 7.00	5.00 to 6.00	5.00 to 6.00	> 7.00
CC(C)n1c([C@H](C)NC(=O)c2c(N)nn3cccnc23)cc2cccc(Cl)c2c1=O [Compound 73]	6.00 to 7.00	> 7.00	6.00 to 7.00	5.00 to 6.00	5.00 to 6.00	> 7.00
C[C@H](NC(=O)c1c(N)nn2cccnc12)c1cc2cccc(Cl)c2c(=O)n1C [Compound 74]	6.00 to 7.00	> 7.00	> 7.00	5.00 to 6.00	6.00 to 7.00	> 7.00
C[C@H](NC(=O)c1c(N)nn2cccnc12)c1cc2cccc(Cl)c2c(=O)n1-c1ccc(F)c(F)c1 [Compound 75]	> 7.00	> 7.00	5.00 to 6.00	5.00 to 6.00	5.00 to 6.00	6.00 to 7.00
C[C@H](NC(=O)c1c(N)nn2cccnc12)c1cc2cccc(Cl)c2c(=O)n1C1CC1 [Compound 77]	6.00 to 7.00	> 7.00	> 7.00	6.00 to 7.00	6.00 to 7.00	> 7.00
C[C@H](NC(=O)c1c(N)nn2cccnc12)c1cc2cccc(Cl)c2c(=O)n1-c1cccc(F)c1 [Compound 78]	> 7.00	> 7.00	6.00 to 7.00	5.00 to 6.00	6.00 to 7.00	> 7.00
Cc1cnc(C(=O)N[C@@H](C)c2cc3cccc(C(F)(F)F)c3c(=O)n2-c2ccccc2)c(N)n1 [Compound 80]	5.00 to 6.00	6.00 to 7.00	< 5.00	< 5.00	< 5.00	5.00 to 6.00
C[C@H](NC(=O)c1nc(-c2cccc(S(C)(=O)=O)c2)cnc1N)c1cc2cccc(Cl)c2c(=O)n1-c1ccccc1 [Compound 84]	6.00 to 7.00	> 7.00	5.00 to 6.00		5.00 to 6.00	6.00 to 7.00
